{"source": "patent US20230365596A1", "about": "“CRYSTAL FORMS OF PYRIDOPYRAZOLE COMPOUNDS AND PREPARATION METHOD THEREFOR” (GUANGZHOU BAIYUNSHAN PHARMACEUTICAL HOLDINGS CO., LTD. …, priority 2020, published 2023)", "key": {"[1]": {"assay": "Pharmacokinetic evaluation in mice (IV and PO)", "type": "in vivo", "conditions": "mouse, plasma, female Balb/c mice", "protocol": "Experimental procedure: A 0.1 mg/mL clear solution of the test compound in the corresponding solvent medium (see Table 22) was injected into female Balb/c mice (fasting overnight, 7-9 weeks old) via tail vein at a dose of 0.2 mg/kg. About 30 μL of blood was collected from jugular vein or tail vein at 0.0833, 0.25, 0.5, 1.0, 2.0, 4.0, 8.0 and 24 h after intravenous administration. 0.2 mg/mL of the test compound suspended in the corresponding solvent medium (see Table 22) was given to female Balb/c mice (fasting overnight, 7-9 weeks old) by gavage at a dose of 2 mg/kg. The experimental conditions were detailed in Table 22. At 0.0833, 0.25, 0.5, 1.0, 2.0, 4.0, 6.0, 8.0 and 24 h after oral administration, about 30 μL of blood was collected from the jugular vein or tail vein of the female Balb/c mice. The blood was placed in an anticoagulant tube in which EDTA-K2 had been added, and plasma was separated by centrifugation. The plasma concentration was determined by LC-MS/MS method, and the relative pharmacokinetic parameters were calculated using WinNonlin™ Version 6.3 (Pharsight, Mountain View, CA) pharmacokinetic software by non-compartment model linear logarithmic trapezoidal method. [table]"}, "[2]": {"target": "RET (Homo sapiens, UniProt P07949)", "sequence (P07949 29-1114)": "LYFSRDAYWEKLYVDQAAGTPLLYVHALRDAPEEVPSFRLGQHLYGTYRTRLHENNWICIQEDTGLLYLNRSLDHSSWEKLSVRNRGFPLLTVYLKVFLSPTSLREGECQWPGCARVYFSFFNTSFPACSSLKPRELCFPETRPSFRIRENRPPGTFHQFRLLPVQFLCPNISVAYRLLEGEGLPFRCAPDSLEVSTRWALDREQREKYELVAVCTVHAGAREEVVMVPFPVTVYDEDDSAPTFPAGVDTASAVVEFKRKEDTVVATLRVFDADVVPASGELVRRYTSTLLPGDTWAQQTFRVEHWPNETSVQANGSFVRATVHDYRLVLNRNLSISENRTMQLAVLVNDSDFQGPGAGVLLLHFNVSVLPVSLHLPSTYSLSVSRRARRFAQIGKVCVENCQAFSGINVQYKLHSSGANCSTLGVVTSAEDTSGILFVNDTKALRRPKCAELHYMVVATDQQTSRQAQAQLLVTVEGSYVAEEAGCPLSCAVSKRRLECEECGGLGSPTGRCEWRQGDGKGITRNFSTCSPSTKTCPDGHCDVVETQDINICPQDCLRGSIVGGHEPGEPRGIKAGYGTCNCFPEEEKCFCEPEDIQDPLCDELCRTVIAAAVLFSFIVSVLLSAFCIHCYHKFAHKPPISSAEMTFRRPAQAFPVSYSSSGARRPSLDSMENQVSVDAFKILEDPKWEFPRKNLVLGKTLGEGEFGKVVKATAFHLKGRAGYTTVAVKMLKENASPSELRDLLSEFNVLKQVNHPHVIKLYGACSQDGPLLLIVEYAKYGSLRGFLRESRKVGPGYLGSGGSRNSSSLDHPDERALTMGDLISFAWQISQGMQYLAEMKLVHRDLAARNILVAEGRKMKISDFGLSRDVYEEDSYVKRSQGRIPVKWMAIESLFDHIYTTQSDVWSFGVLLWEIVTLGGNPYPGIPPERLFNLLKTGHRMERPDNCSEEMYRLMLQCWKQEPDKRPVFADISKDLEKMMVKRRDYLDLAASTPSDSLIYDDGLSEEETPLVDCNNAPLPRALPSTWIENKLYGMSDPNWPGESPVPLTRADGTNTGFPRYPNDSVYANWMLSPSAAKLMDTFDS", "assay": "In vitro enzyme activity test, RET kinase", "type": "biochemical", "conditions": "ATP 20 μM", "protocol": "(§1) The enzyme activity was experimentally detected by Z'-LYTE™ kinase test, and the inhibitory effect of the compound on RET and RET (V804M) kinase was evaluated with the IC50 value of the compound as an indicator. The concentration of the compound used for the RET and RET (V804M) kinase test was diluted by a factor of 3, giving 10 concentrations from 3 μM to 0.152 nM. The content of DMSO in the detection reaction was 1%. Basic reaction buffer, 20 mM hydroxyethyl piperazine-ethanesulfonic acid (Hepes) (pH 7.5) buffer, 10 mM MgCl2, 1 mM ethylene glycol bis(aminoethyl ether)tetraacetic acid (EGTA), 0.02% polyoxyethylene dodecyl ether (Brij35), 0.02 mg/mL bovine serum protein, 0.1 mM Na3VO4, 2 mM dithiothreitol (DTT) and 1% DMSO. The compound to be tested was dissolved in 100% DMSO system and diluted to 10 mM for use. Integra Viaflo Assist was used for solution dilution. Test conditions: The concentration of RET enzyme was […], the concentration of the peptide substrate CHKtide was 1000 μM, and the concentration of ATP was 20 μM; and the concentration of RET (V804M) enzyme was […], the concentration of substrate peptide was 1000 μM, and the concentration of ATP was 30 μM. […]. Phosphoric acid with a concentration of 0.5% was added to the kinase reaction solution to stop the reaction, and Envision instrument was used for plate reading. […]"}, "[3]": {"target": "RET (V804M) (Homo sapiens, UniProt P07949, V804M)", "sequence (P07949 29-1114 V804M)": "as the sequence (P07949 29-1114) above, with V776M counted along it", "assay": "In vitro enzyme activity test, RET (V804M) kinase", "type": "biochemical", "conditions": "ATP 30 μM", "protocol": "as §1"}, "[4]": {"tested_on": "Ba/F3-CCDC6-RET cell xenograft tumor model", "assay": "Analysis of tumor growth inhibition (TGI)", "type": "in vivo, BALB/c nude female mice", "conditions": "10 mg/kg D0-D13 / 5 mg/kg D14-D17 / 2.5 mg/kg D18-D28, BID", "protocol": "Ba/F3-CCDC6-RET cell strain was cultured using 1640 medium (Biological Industries)+10% fetal bovine serum (BI)+1% double antibody (Penicillin Streptomycin solution, Coring, USA) at 37° C. with 5% CO2 and subcultured twice a week. When the cell saturation is 80-90%, cells were collected, counted, and inoculated subcutaneously into the right axillary of BALB/c nude female mice (6-8 weeks). After the inoculation was completed, the tumor growth status was observed day by day. When the average tumor volume reached about 165.77 mm^3, the mice were randomly divided into groups, with 6 mice per group, and administration was started.\nThe health status and death of the animals were detected daily. Routine examinations included tumor growth, activity, diet, weight, eyes, hair and other abnormal behaviors of the animals, and the tumor volume and weight were measured twice a week (Tuesday and Friday).\nThe inhibitory effect of the compound on tumor growth was evaluated by the relationship between tumor volume and time. The tumor volume was measured by vernier caliper, with the formula being TV=0.5 a×b^2, wherein, “a” was the long diameter of the tumor and “b” was the short diameter of the tumor. […]\nit was calculated by the following formula: […]"}, "[5]": {"assay": "Solid stability study, long-term conditions (XRPD)", "type": "physicochemical", "conditions": "for Crystal form (XRPD): 3 months", "protocol": "The flasks were placed under 40° C./75% RH conditions for 3 months or under 25° C./60% RH conditions for 3 months, then sampled for XRPD detection, and the detection results were compared with the initial test results of Day 0."}, "[6]": {"assay": "Solid stability experiment, high temperature and high humidity (XRPD)", "type": "physicochemical", "description": "For samples placed under high temperature and high humidity, use aluminum foil to seal the bottle, and prick some holes on the aluminum foil to ensure that the sample can fully contact with the ambient air. The samples placed under different conditions were sampled for XRPD detection on Days 5 and 10, and the test results were compared with the initial test results on Day 0."}, "[7]": {"assay": "Hygroscopicity study by dynamic vapor sorption (DVS)", "type": "physicochemical", "conditions": "25° C. and 80% RH", "protocol": "• Instrument model: SMS DVS Intrinsic dynamic vapor sorption instrument • Test conditions: A sample (10-15 mg) is taken and placed in a DVS sample tray for testing.\nDetailed DVS Parameters are as Follows: • Temperature: 25° C. • Balance: dm/dt=0.01%/min (shortest: 10 min, longest: 180 min) • Drying: at 0% RH for 120 min • RH (%) test gradient: 10% • RH (%) test gradient range: 0%-90%-0%\nHygroscopicity Assessment is Classified as Follows:\nSMS DVS Intrinsic Dynamic Vapor Sorption Instrument"}}, "note": "pIC50: −log10 of the molar value."}
{"smiles": "COc1ccc(CN2C3CC2CN(c2cnc(-c4cc(C5=CCOCC5)cn5ncc(C#N)c45)cn2)C3)cn1", "note": "[listing 1 of 2 here]", "values": [{"measurement": "AUC(0-t)", "setting": "[1]; IV 0.2 mg/kg", "result": 2.79, "unit": "µM·h"}, {"measurement": "clearance", "setting": "[1]; IV 0.2 mg/kg, read-out: Cl (plasma clearance)", "result": 2.3, "unit": "mL/min/kg"}, {"measurement": "half-life", "setting": "[1]; IV 0.2 mg/kg, read-out: T1/2 (elimination half-life) (converted)", "result": 2.6, "unit": "h"}, {"measurement": "Vd", "setting": "[1]; IV 0.2 mg/kg, read-out: Vdss (apparent steady-state distribution volume)", "result": 0.5, "unit": "L/kg"}, {"measurement": "AUC(0-t)", "setting": "[1]; PO 2 mg/kg", "result": 26.9, "unit": "µM·h"}, {"measurement": "Cmax", "setting": "[1]; PO 2 mg/kg", "result": 5.34, "unit": "µM"}, {"measurement": "Tmax", "setting": "[1]; PO 2 mg/kg", "result": 2, "unit": "h"}, {"measurement": "pIC50", "setting": "[2]", "result": 9.14}, {"measurement": "pIC50", "setting": "[3]", "result": 8.23}, {"measurement": "TGI % (tumor volume on Day 23 after administration)", "setting": "[4]", "result": 98, "unit": "%"}]}
{"smiles": "COc1ccc(CN2C3CC2CN(c2cnc(-c4cc(C5=CCOCC5)cn5ncc(C#N)c45)cn2)C3)cn1", "note": "[listing 2 of 2 here]", "values": [{"measurement": "Crystal form (XRPD)", "setting": "[5]; 25° C./60% RH", "result": "Crystal form A"}, {"measurement": "Crystal form (XRPD)", "setting": "[5]; 40° C./75% RH", "result": "Crystal form A"}, {"measurement": "Crystal form change (in words)", "setting": "[5]; all stability conditions (40° C./75% RH, 25° C./60% RH, 3 months)", "result": "no crystal form change"}, {"measurement": "Solid stability (in words)", "setting": "[5]; long-term conditions", "result": "good stability"}, {"measurement": "Crystal form (XRPD)", "setting": "[6]; High humidity (room temperature/relative humidity 92.5%, open), Day 5", "result": "Crystal form A"}, {"measurement": "Crystal form (XRPD)", "setting": "[6]; High humidity (room temperature/relative humidity 92.5%, open), Day 10", "result": "Crystal form A"}, {"measurement": "Crystal form (XRPD)", "setting": "[6]; High temperature (60° C., open), Day 5", "result": "Crystal form A"}, {"measurement": "Crystal form (XRPD)", "setting": "[6]; High temperature (60° C., open), Day 10", "result": "Crystal form A"}, {"measurement": "Solid stability (in words)", "setting": "[6]; high temperature and high humidity", "result": "good stability"}, {"measurement": "Classification of hygroscopicity", "setting": "[7]", "result": "slightly hygroscopic"}, {"measurement": "ΔW (hygroscopic weight gain)", "setting": "[7]", "result": 0.8, "unit": "%"}]}
